Experimental data published in patent publication US8759384B2, “Oxo-imidazolyl compounds” (priority 2008, dated 2014).

Legend:
[1] = test system: B. anthracis ΔSterne; assay: microbe, parasite or virus in culture; assay type: cell-based; settings: Bacillus anthracis; Conc. 3 μM; read-out: Inhibitive activity Anthracis (% inhibition of growth)
[2] = test system: Staphylococcus aureus MRSA; assay: microbe, parasite or virus in culture; assay type: cell-based; settings: Conc. 3 μM, read-out: Inhibitive activity MRSA (% inhibition of growth)

Compound	inhibition at 3 µM [1]	inhibition at 3 µM [2]
O=C(O)C(Cc1ccccc1)N1C(=O)/C(=C\c2ccc(-c3ccc(Br)cc3)s2)NC1=S (centres unmarked) [EX. 7, 2-(4-((5-(4-Bromophenyl)thiophen-2-yl)methylene)-5-oxo-2-thioxoimidazolidin-1-yl)-3-phenylpropanoic acid]	67.9%	–
O=C(O)C(Cc1ccccc1)N1C(=O)/C(=C\c2ccc(-c3ccc(Cl)c(Cl)c3)o2)NC1=S (centres unmarked) [EX. 6, 2-(4-((5-(3,4-Dichlorophenyl)furan-2-yl)methylene)-5-oxo-2-thioxoimidazolidin-1-yl)-3-phenylpropanoic acid]	–	-3.72%
